{
  "source": "ChEMBL document CHEMBL3217470",
  "about": "“Binding free energy calculations and biological testing of novel thiobarbiturates as inhibitors of the human NAD+dependent histone deacetylase Sirt2” (Medchemcomm, 2012)",
  "data": [
    {"target": "T1, NAD-dependent protein deacetylase sirtuin-2 (Homo sapiens, UniProt Q8IXJ6)", "T1 sequence (Q8IXJ6 whole entry)": "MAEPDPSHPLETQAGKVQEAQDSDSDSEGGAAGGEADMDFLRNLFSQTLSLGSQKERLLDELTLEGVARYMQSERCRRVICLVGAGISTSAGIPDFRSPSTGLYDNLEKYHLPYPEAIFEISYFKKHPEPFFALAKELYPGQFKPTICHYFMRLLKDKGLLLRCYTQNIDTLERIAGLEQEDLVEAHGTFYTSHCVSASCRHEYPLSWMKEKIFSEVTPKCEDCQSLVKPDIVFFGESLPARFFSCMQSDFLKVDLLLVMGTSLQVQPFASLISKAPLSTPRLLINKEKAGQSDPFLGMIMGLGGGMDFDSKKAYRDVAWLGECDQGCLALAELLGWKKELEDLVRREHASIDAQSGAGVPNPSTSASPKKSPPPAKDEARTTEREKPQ", "test": "(§1) Inhibition of human recombinant Sirt2 using ZMAL as substrate after 4 hrs by fluorescent deacetylase assay", "conditions": "read-out: IC50", "units": {"IC50": "µM"}, "values": [
      {"smiles": "O=C1NC(=S)NC(=O)C1=Cc1cn(-c2ccccc2)nc1-c1ccc(Cl)cc1", "IC50": 3.8},
      {"smiles": "O=C1NC(=S)NC(=O)C1=Cc1ccc(-c2ccc(Cl)cc2)o1", "IC50": 6.5},
      {"smiles": "O=C1NC(=S)NC(=O)C1=Cc1ccc(-c2ccc(C(=O)OCc3cccc(Cl)c3)cc2)o1", "IC50": 2.2},
      {"smiles": "COc1ccc(CC2C(=O)NC(=S)NC2=O)cc1OCc1ccccc1", "IC50": 5.8},
      {"smiles": "CC(=O)c1ccc(-c2ccc(C=C3C(=O)NC(=S)NC3=O)o2)cc1", "IC50": 5.5},
      {"smiles": "O=C1NC(=S)NC(=O)C1=Cc1ccc(Sc2ccccc2)o1", "IC50": 3.5},
      {"smiles": "O=C1NC(=S)NC(=O)C1=Cc1ccc(OCc2cccc3ccccc23)cc1", "IC50": 2.6},
      {"smiles": "O=C1NC(=S)NC(=O)C1=Cc1ccc(OCc2ccccc2)c(OCc2ccccc2)c1", "IC50": 3.9},
      {"smiles": "O=C1NC(=S)NC(=O)C1=Cc1ccc(-c2ccc(Cl)c(Cl)c2)o1", "IC50": 1.5},
      {"smiles": "COC(=O)c1ccc(-c2ccc(C=C3C(=O)NC(=S)NC3=O)o2)cc1", "IC50": 5.7},
      {"smiles": "CC(C)Oc1ccc(C=C2C(=O)NC(=S)NC2=O)cc1", "IC50": 5.8},
      {"smiles": "CCOc1ccc(C=C2C(=O)NC(=S)NC2=O)cc1CCc1ccccc1", "IC50": 4.9},
      {"smiles": "O=C1NC(=S)NC(=O)C1=Cc1cc(OCc2ccc(Br)cc2)ccc1Cl", "IC50": 1.8},
      {"smiles": "C=CCN1C(=O)/C(=C/c2ccc(-c3cccc(Cl)c3Cl)o2)C(=O)NC1=S", "IC50": 2.8}
    ]},
    {"target": "T1, NAD-dependent protein deacetylase sirtuin-2", "test": "as §1", "conditions": "read-out: pIC50 (converted)", "units": {"IC50": "µM"}, "values": [
      {"smiles": "O=C1NC(=S)NC(=O)C1=Cc1ccc(-c2ccc(Cl)cc2)o1", "IC50": 2.19},
      {"smiles": "O=C1NC(=S)NC(=O)C1=Cc1ccc(-c2ccc(C(=O)OCc3cccc(Cl)c3)cc2)o1", "IC50": 6.46}
    ]}
  ]
}
